From ChEMBL document CHEMBL4507258 (2021)
pKi: −log10 of the molar value.

Legend:
[1] = biological target: Alpha-2A adrenergic receptor (Homo sapiens) (UniProt P08913); conditions: Compound concentration 10.0 uM
[2] = biological target: Sigma non-opioid intracellular receptor 1 (Homo sapiens, UniProt Q99720); assay: GPCRScan assay: inhibition of Sigma 1; parameters: radioligand conc. used [nm] 4.0 – 5.0, parental cells HEKT
[3] = biological target: Kappa-type opioid receptor (Homo sapiens, UniProt P41145); assay: GPCRScan assay: inhibition of KOR; parameters: radioligand conc. used [nm] 0.6 – 1.2, parental cells stable HEK
[4] = biological target: Muscarinic acetylcholine receptor M1 (Homo sapiens) (UniProt P11229); conditions: Compound concentration 10.0 uM
[5] = biological target: Adenosine receptor A2a (Homo sapiens) (UniProt P29274); assay: Adenosine A 2A receptor (h) CEREP ligand profiling; conditions: Compound concentration 10.0 uM
[6] = biological target: Galanin receptor (Homo sapiens) (UniProt O60755+O43603+P47211); assay: Galanin receptor (h) CEREP ligand profiling; type: protein assay; conditions: Compound concentration 10.0 uM
[7] = biological target: Adrenergic receptor alpha-2 (Homo sapiens) (UniProt P08913+P18825+P18089); assay: alpha2-adrenoceptor (non-selective) CEREP ligand profiling; type: protein assay; conditions: Compound concentration 10.0 uM
[8] = biological target: Muscarinic acetylcholine receptor M1 (Homo sapiens) (UniProt P11229); assay: Muscarinic M1 receptors (h) CEREP ligand profiling; conditions: Compound concentration 10.0 uM
[9] = biological target: T1, 5-hydroxytryptamine receptor 1A (Homo sapiens) (UniProt P08908); assay: 5-Hydroxytryptamine1A (h) CEREP ligand profiling; conditions: Compound concentration 10.0 uM
T1 sequence (whole entry): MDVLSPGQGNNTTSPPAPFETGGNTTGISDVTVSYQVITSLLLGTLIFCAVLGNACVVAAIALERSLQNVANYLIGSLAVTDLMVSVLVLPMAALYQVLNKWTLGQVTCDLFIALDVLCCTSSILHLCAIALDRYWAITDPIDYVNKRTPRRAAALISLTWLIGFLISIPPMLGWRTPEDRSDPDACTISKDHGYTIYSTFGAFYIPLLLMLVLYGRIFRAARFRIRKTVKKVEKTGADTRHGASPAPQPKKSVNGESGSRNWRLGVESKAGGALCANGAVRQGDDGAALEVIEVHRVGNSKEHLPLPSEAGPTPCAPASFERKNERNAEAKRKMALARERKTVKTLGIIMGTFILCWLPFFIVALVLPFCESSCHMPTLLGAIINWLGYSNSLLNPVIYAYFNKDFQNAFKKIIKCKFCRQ

[10] = biological target: Neurotensin receptor (Homo sapiens) (UniProt O95665+P30989); assay: Neurotensin receptor (h) CEREP ligand profiling; type: protein assay; conditions: Compound concentration 10.0 uM
[11] = biological target: Endothelin-1 receptor (Homo sapiens) (UniProt P25101); conditions: Compound concentration 10.0 uM
[12] = biological target: Serine/threonine-protein kinase SIK1 (Homo sapiens, UniProt P57059); assay: Inhibition of SIK1 at compound concentration of 10.0 uM using the ScanMax (DiscoverX)
[13] = biological target: Beta-2 adrenergic receptor (Homo sapiens) (UniProt P07550); assay: beta2-adrenoceptor (h) CEREP ligand profiling; conditions: Compound concentration 10.0 uM
[14] = biological target: Serine/threonine-protein kinase DCLK1 (Homo sapiens, UniProt O15075); assay: Inhibition of DCLK1 at compound concentration of 10.0 uM using the ScanMax (DiscoverX)
[15] = biological target: Gastrin/cholecystokinin type B receptor (Homo sapiens) (UniProt P32239); assay: CholecystokininB receptor (h) CEREP ligand profiling; conditions: Compound concentration 10.0 uM
[16] = biological target: Glutamate NMDA receptor (Rattus norvegicus) (UniProt P35439+Q00959+Q00960+Q00961+Q62645+Q8VHN2+Q9R1M7); assay: PCP receptor CEREP ligand profiling; type: protein-complex assay; conditions: Compound concentration 10.0 uM
[17] = biological target: Adrenergic receptor alpha-1 (Homo sapiens) (UniProt P35348+P25100+P35368); assay: alpha1-adrenoceptor (non-selective) CEREP ligand profiling; type: protein assay; conditions: Compound concentration 10.0 uM
[18] = biological target: Bombesin receptor (Homo sapiens) (UniProt P28336+P32247+P30550); assay: Bombesin receptor CEREP ligand profiling; type: protein assay; conditions: Compound concentration 10.0 uM
Sodium channel (site 2) = Sodium channel (site 2) (Homo sapiens, UniProt P35498+P35499+Q01118+Q14524+Q15858+Q99250+Q9NY46+Q9UI33+Q9UQD0+Q9Y5Y9); assay: Na+ channel (site 2) CEREP ligand profiling; type: protein assay; conditions: compound concentration 10 uM
[19] = biological target: Histamine H2 receptor (Homo sapiens) (UniProt P25021); assay: Histamine H2 receptor CEREP ligand profiling; conditions: Compound concentration 10.0 uM
[20] = biological target: Prostacyclin receptor (Homo sapiens) (UniProt P43119); assay: Prostaglandin I2 receptor CEREP ligand profiling; conditions: Compound concentration 10.0 uM
[21] = biological target: Muscarinic acetylcholine receptor M5 (Homo sapiens) (UniProt P08912); assay: Muscarinic M5 receptors (h) CEREP ligand profiling; conditions: Compound concentration 10.0 uM
Muscarinic acetylcholine receptor M5 (Homo sapiens), sequence (P08912 whole entry): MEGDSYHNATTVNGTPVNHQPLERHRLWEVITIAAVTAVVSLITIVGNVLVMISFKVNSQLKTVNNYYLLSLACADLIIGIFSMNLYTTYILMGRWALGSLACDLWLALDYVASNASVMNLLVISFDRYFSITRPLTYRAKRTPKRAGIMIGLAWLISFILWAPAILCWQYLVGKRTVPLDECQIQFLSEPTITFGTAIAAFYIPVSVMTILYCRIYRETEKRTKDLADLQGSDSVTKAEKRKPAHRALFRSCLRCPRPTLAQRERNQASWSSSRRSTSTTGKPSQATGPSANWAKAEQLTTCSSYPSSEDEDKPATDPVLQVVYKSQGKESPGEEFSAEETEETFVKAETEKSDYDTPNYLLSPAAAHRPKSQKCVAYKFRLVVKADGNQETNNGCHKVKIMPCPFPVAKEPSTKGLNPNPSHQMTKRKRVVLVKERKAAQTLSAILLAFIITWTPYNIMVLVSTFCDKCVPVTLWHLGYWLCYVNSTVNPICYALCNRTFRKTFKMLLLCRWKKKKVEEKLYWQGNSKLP

Kappa-type opioid receptor, sequence (P41145 whole entry): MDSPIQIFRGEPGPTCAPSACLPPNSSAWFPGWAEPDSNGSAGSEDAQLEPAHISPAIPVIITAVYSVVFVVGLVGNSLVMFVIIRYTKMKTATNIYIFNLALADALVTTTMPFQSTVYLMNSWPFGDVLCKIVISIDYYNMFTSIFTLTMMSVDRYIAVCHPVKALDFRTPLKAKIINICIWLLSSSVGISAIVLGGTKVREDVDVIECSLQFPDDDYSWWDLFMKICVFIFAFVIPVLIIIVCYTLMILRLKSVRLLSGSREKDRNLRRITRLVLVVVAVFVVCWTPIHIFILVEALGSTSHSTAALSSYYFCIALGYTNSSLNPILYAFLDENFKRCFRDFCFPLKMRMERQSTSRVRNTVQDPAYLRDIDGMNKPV
Muscarinic acetylcholine receptor M1 (Homo sapiens), sequence (P11229 whole entry): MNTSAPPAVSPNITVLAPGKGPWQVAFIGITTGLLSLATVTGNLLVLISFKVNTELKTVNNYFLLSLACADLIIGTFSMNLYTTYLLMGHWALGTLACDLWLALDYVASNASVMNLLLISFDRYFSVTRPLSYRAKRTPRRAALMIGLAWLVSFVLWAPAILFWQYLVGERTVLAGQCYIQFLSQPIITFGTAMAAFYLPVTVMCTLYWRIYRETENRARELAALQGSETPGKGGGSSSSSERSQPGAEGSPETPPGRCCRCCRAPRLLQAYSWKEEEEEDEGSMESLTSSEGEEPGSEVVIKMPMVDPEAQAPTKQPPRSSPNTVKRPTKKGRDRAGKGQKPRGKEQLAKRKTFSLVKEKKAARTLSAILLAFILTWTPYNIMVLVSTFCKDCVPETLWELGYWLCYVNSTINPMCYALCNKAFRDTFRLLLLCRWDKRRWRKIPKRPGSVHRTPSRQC
Prostacyclin receptor (Homo sapiens), sequence (P43119 whole entry): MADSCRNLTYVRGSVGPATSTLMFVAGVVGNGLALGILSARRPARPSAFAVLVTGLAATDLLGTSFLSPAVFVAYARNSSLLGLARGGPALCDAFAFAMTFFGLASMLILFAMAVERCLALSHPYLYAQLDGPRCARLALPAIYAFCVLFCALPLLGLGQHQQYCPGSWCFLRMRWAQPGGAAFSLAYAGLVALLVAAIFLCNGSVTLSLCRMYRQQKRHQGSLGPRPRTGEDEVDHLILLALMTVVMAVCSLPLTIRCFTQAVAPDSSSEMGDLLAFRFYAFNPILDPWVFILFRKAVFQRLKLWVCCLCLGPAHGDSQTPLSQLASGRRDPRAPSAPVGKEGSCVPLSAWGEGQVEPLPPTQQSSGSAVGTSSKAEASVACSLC
Gastrin/cholecystokinin type B receptor (Homo sapiens), sequence (P32239 whole entry): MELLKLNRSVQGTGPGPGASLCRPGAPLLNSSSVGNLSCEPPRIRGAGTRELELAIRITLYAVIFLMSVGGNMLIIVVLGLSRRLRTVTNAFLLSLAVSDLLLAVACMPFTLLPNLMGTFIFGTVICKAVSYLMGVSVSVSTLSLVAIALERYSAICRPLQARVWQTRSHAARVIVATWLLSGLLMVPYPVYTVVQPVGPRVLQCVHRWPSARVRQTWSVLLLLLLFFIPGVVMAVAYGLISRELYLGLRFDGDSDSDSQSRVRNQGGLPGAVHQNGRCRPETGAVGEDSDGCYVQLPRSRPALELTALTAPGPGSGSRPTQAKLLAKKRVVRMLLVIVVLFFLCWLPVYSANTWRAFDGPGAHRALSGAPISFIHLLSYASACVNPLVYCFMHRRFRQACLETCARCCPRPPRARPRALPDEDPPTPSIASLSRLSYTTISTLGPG
Histamine H2 receptor (Homo sapiens), sequence (P25021 whole entry): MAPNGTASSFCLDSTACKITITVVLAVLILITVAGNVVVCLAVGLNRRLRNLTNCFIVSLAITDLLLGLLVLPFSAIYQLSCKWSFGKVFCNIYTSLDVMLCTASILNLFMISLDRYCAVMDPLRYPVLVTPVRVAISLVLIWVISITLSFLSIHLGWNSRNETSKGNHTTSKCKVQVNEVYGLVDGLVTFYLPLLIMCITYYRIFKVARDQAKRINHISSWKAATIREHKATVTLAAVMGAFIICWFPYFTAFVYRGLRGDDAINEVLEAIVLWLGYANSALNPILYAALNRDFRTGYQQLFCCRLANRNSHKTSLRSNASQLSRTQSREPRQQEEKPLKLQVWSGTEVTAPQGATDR
Bombesin receptor (Homo sapiens), sequence (P28336 whole entry, looked up): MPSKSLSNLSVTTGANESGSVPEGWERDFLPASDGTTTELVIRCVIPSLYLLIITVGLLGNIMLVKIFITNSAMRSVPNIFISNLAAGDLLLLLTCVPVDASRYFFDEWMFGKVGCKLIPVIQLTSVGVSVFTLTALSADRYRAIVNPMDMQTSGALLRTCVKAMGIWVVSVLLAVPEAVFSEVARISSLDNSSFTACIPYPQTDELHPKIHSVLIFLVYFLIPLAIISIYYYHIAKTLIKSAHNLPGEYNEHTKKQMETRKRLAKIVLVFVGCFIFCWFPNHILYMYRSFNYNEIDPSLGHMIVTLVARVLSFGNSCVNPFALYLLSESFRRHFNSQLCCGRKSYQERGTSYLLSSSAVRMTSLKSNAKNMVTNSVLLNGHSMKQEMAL
Bombesin receptor (Homo sapiens), sequence (P30550 whole entry, looked up): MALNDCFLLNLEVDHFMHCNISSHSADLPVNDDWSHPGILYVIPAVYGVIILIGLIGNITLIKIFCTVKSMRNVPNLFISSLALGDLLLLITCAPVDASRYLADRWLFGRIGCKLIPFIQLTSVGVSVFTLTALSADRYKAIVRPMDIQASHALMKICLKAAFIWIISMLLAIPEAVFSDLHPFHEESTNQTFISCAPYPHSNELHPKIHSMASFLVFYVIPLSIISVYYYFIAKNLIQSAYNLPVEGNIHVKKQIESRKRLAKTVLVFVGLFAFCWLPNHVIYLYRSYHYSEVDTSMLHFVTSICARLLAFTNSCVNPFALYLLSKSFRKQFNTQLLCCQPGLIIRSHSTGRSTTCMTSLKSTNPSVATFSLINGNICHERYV
Bombesin receptor (Homo sapiens), sequence (P32247 whole entry, looked up): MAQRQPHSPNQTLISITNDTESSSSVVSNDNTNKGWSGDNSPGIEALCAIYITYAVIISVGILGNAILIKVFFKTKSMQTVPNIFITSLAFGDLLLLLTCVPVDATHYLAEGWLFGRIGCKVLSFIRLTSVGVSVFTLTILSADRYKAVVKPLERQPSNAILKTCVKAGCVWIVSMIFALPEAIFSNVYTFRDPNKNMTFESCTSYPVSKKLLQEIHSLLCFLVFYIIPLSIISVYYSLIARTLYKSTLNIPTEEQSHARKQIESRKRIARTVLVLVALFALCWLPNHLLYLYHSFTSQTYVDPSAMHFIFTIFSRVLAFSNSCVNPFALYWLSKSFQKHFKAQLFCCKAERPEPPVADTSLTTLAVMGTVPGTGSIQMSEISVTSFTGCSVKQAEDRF
Alpha-2A adrenergic receptor (Homo sapiens), sequence (P08913 whole entry): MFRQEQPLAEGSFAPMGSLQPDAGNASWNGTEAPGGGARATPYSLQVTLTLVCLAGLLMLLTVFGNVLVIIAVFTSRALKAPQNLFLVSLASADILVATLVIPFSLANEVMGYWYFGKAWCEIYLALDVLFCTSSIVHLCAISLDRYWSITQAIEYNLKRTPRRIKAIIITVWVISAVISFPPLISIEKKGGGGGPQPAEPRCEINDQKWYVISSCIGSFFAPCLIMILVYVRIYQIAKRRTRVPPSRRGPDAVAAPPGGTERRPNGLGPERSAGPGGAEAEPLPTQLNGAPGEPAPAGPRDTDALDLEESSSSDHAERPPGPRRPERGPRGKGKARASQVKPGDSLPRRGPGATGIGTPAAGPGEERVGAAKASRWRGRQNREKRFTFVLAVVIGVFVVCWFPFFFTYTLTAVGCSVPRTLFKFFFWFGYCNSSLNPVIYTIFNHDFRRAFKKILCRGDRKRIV
Endothelin-1 receptor (Homo sapiens), sequence (P25101 whole entry): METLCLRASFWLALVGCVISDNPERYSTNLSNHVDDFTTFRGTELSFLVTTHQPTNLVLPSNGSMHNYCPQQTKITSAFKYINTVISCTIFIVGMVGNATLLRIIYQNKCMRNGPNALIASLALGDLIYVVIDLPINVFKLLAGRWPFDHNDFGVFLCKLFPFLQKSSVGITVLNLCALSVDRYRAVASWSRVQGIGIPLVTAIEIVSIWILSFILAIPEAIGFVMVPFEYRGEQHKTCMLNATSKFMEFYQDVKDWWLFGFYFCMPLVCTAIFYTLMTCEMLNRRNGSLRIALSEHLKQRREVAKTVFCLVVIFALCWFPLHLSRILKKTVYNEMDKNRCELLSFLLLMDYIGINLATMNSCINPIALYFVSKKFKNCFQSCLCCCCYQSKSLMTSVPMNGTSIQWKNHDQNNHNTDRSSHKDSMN
Sigma non-opioid intracellular receptor 1, sequence (Q99720 whole entry): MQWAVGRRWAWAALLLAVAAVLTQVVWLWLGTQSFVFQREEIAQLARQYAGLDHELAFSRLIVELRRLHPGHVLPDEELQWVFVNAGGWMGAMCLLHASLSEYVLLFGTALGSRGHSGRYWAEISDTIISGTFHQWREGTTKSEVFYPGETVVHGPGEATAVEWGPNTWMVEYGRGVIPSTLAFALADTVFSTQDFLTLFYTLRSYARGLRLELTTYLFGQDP

CCCCN(CCCC)C(=O)CN1C[C@@H](c2cc(OC)c3c(c2)OCO3)[C@H](C(=O)O)[C@H]1CC(C)(C)CCC [A-545]
inhibition [1]: 19.1% | pKi [2]: 6.53 | pKi ([3]; read-out: Ki): 5.56 | Ki ([3]; read-out: pKi (converted)): 2.82 µM | inhibition [4]: 12.4%

CCCCN(CCCC)C(=O)CN1C[C@H](c2cc(OC)c3c(c2)OCO3)[C@@H](C(=O)O)[C@@H]1CC(C)(C)CCC [ABT-546]
inhibition [5]: < 10% | inhibition [6]: < 10% | inhibition [7]: 18% | inhibition [8]: < 10% | inhibition [9]: < 10% | inhibition [10]: < 10% | inhibition [11]: 98% | Kd [12]: > 10 µM (not active) | inhibition [13]: < 10% | Kd [14]: > 10 µM (not active) | inhibition [15]: < 10% | inhibition [16]: < 10% | inhibition [17]: < 10% | inhibition [18]: < 10% | inhibition at 10 µM (Sodium channel (site 2)): < 10% (not active) | inhibition [19]: < 10% | inhibition [20]: 15% | inhibition [21]: < 10%
